In patent publication US20250099557A1, “ANTIBIOTIC PHARMACEUTICAL COMPOSITION CAPABLE OF SUBCUTANEOUS ADMINISTRATION” (SHANGHAI BAO PHARMACEUTICALS CO., LTD., priority 2021, published 2025):

Experiments:
HAase = target: T1, HAase (Homo sapiens, UniProt P38567); assay: Compatibility study of HAase and antibiotic in solution: HAase activity; format: biochemical; details: 15 min room temperature; for Final concentration of HAase (units/ml) 150: HAase added to 150 units/ml; for Final concentration of HAase (units/ml) 500: HAase added to 500 units/ml; for Final concentration of HAase (units/ml) 2000: HAase added to 2000 units/ml; for Final concentration of HAase (units/ml) 6000: HAase added to 6000 units/ml; for interference with the activity of HAase: antibiotic and HAase in physiological saline
T1 construct: made in house
T1 sequence (P38567 36-482): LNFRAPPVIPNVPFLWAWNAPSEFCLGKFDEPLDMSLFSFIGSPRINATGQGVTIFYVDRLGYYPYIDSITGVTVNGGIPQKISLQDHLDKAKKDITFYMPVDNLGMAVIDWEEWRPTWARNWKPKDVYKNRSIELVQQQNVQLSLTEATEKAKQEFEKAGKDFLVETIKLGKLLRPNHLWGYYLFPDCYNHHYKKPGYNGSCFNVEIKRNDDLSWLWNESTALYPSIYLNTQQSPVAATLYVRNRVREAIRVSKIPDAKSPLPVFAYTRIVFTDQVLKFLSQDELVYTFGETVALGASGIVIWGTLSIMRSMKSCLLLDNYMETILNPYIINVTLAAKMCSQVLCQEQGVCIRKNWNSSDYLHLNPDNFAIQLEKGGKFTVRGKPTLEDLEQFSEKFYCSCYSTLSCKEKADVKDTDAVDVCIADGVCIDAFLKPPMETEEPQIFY
Description: “HAase activity refers to the ability of HAase to catalytically cleave hyaluronic acid. The Chinese Pharmacopoeia provides a method for determining the HAase activity, indirectly by measuring the amount of remaining higher-molecular-weight hyaluronic acid substrate after the enzyme is allowed to catalytically cleave hyaluronic acid at 37° C. for 30 min. A standard reference solution can be used in the assay to determine the relative activity (in units) of any HAase. In-vitro assays for the determination of HAase are known in the art. Exemplary assays include micro-turbidimetric assay described below, which indirectly measures the cleavage of hyaluronic acid by HAase by detecting an insoluble precipitate formed when uncleaved hyaluronic acid binds to serum albumin. The reference standard can be used, for example, to generate a standard curve, so as to determine the activity of the tested HAase in units.
The compatibility of HAase and an antibiotic was studied by preparing a solution comprising the two substances. A dry Meropenem power for injection was dissolved in physiological saline to give a concentration of 5 mg/ml and 50 mg/ml, and then HAase was added to give a final concentration of 150, 500, 2000, and 6000 units/ml respectively. After preparation, the solution was left to stand at room temperature for 15 min. The appearance of the solution was observed, and the concentration of HAase was determined.
The compatibility of HAase and an antibiotic was studied by preparing a solution comprising the two substances. A dry Ceftriaxone sodium power for injection was dissolved in physiological saline to give a concentration of 50 mg/ml and 250 mg/ml, and then HAase was added to give a final concentration of 150, 500, 2000, and 6000 units/ml respectively. After preparation, the solution was left to stand at room temperature for 15 min. The appearance of the solution was observed, and the concentration of HAase was determined.
The compatibility of HAase and an antibiotic was studied by preparing a solution comprising the two substances. A dry Azithromycin power for injection was dissolved in physiological saline to give a concentration of 10 mg/ml and 100 mg/ml, and then HAase was added to give a final concentration of 150, 500, 2000, and 6000 units/ml respectively. After preparation, the solution was left to stand at room temperature for 15 min. The appearance of the solution was observed, and the concentration of HAase was determined.
The compatibility of HAase and an antibiotic was studied by preparing a solution comprising the two substances. A dry Cefradine powder for injection was dissolved in physiological saline to give a concentration of 50 mg/ml and 250 mg/ml, and then HAase was added to give a final concentration of 150, 500, 2000, and 6000 units/ml respectively. After preparation, the solution was left to stand at room temperature for 15 min. The appearance of the solution was observed, and the concentration of HAase was determined.
The compatibility of HAase and an antibiotic was studied by preparing a solution comprising the two substances. A dry Teicoplanin powder for injection was dissolved in physiological saline to give a concentration of 10 mg/ml and 70 mg/ml, and then HAase was added to give a final concentration of 150, 500, 2000, and 6000 units/ml respectively. After preparation, the solution was left to stand at room temperature for 15 min. The appearance of the solution was observed, and the concentration of HAase was determined.
The compatibility of HAase and an antibiotic was studied by preparing a solution comprising the two substances. A dry Ceftazidime powder for injection was dissolved in physiological saline to give a concentration of 20 mg/ml and 200 mg/ml, and then HAase was added to give a final concentration of 150, 500, 2000, and 6000 units/ml respectively. After preparation, the solution was left to stand at room temperature for 15 min.

intestinal flora = assay: Effects of administration routes on the diversity of intestinal flora in mice (16S rDNA sequencing, OTU); format: in vivo; details: C57BL/6 mice, feces
From the text: 12 SPF grade C57BL/6 mice were used for each antibiotic mode, and divided into two groups, each having 6 mice. The two groups include an oral administration group, and a subcutaneous administration group combined with recombinant human HAase. A blank control group including 6 mice was also set. The mice in the oral administration group were given the model antibiotic solution by oral gavage for five consecutive days. The mice in the subcutaneous administration group combined with recombinant human HAase were given the same dose of model antibiotic as that in the oral administration group by subcutaneous administration for five consecutive days. The feces of mice in each group were collected on the 1 st, 2nd, 3rd, 4th, 5th, 6th, 8th, 10th and 14th days after five consecutive days of administration, and stored at −80° C., for detecting the microbial diversity later. The fecal samples of each group were amplified and sequenced by 16S rDNA sequencing. After DNA extraction, PCR amplification and gene sequencing, the changes of intestinal bacterial diversity in each group of mice were analyzed. The relative species diversity of the test group was calculated, with the OUT value of the blank control group in each day as a reference, as shown in Table 33.

[1] = antibiotic 50 mg/ml in physiological saline
[2] = antibiotic 250 mg/ml in physiological saline
[3] = in combination with recombinant human HAase for subcutaneous administration, five consecutive days, D1 after administration
[4] = in combination with recombinant human HAase for subcutaneous administration, five consecutive days, D2
[5] = in combination with recombinant human HAase for subcutaneous administration, five consecutive days, D3
[6] = in combination with recombinant human HAase for subcutaneous administration, five consecutive days, D4
[7] = in combination with recombinant human HAase for subcutaneous administration, five consecutive days, D5
[8] = in combination with recombinant human HAase for subcutaneous administration, five consecutive days, D6
[9] = in combination with recombinant human HAase for subcutaneous administration, five consecutive days, D8
[10] = in combination with recombinant human HAase for subcutaneous administration, five consecutive days, D10
[11] = in combination with recombinant human HAase for subcutaneous administration, five consecutive days, D14
[12] = oral administration for five consecutive days, D1 after administration
[13] = oral administration for five consecutive days, D2
[14] = oral administration for five consecutive days, D3
[15] = oral administration for five consecutive days, D4
[16] = oral administration for five consecutive days, D5
[17] = oral administration for five consecutive days, D6
[18] = oral administration for five consecutive days, D8
[19] = oral administration for five consecutive days, D10
[20] = oral administration for five consecutive days, D14

SMILES	Final concentration of HAase (units/ml) 150 (HAase; [1]) [units/ml]	Final concentration of HAase (units/ml) 500 (HAase; [1]) [units/ml]	Final concentration of HAase (units/ml) 2000 (HAase; [1]) [units/ml]	Final concentration of HAase (units/ml) 6000 (HAase; [1]) [units/ml]	Final concentration of HAase (units/ml) 150 (HAase; [2]) [units/ml]	Final concentration of HAase (units/ml) 500 (HAase; [2]) [units/ml]	Final concentration of HAase (units/ml) 2000 (HAase; [2]) [units/ml]	Final concentration of HAase (units/ml) 6000 (HAase; [2]) [units/ml]	interference with the activity of HAase (HAase)	Relative abundance of OUT (operational taxonomic units) (intestinal flora; [3]) [%]	Relative abundance of OUT (operational taxonomic units) (intestinal flora; [4]) [%]	Relative abundance of OUT (operational taxonomic units) (intestinal flora; [5]) [%]	Relative abundance of OUT (operational taxonomic units) (intestinal flora; [6]) [%]	Relative abundance of OUT (operational taxonomic units) (intestinal flora; [7]) [%]	Relative abundance of OUT (operational taxonomic units) (intestinal flora; [8]) [%]	Relative abundance of OUT (operational taxonomic units) (intestinal flora; [9]) [%]	Relative abundance of OUT (operational taxonomic units) (intestinal flora; [10]) [%]	Relative abundance of OUT (operational taxonomic units) (intestinal flora; [11]) [%]	Relative abundance of OUT (operational taxonomic units) (intestinal flora; [12]) [%]	Relative abundance of OUT (operational taxonomic units) (intestinal flora; [13]) [%]	further results
CC1=C(C(=O)O)N2C(=O)[C@@H](NC(=O)[C@H](N)C3=CCC=CC3)[C@H]2SC1 [Cefradine]	162	492	2009	6126	161	482	2080	5797	does not interfere with the activity of HAase	35.5	37.2	36.3	36.2	36.2	37.1	42.1	42.9	48.7	24.4	23.6	Relative abundance of OUT (operational taxonomic units) (intestinal flora; [14]): 20.4%; Relative abundance of OUT (operational taxonomic units) (intestinal flora; [15]): 22.6%; Relative abundance of OUT (operational taxonomic units) (intestinal flora; [16]): 20.7%; Relative abundance of OUT (operational taxonomic units) (intestinal flora; [17]): 24.3%; Relative abundance of OUT (operational taxonomic units) (intestinal flora; [18]): 25.8%; Relative abundance of OUT (operational taxonomic units) (intestinal flora; [19]): 28.6%; Relative abundance of OUT (operational taxonomic units) (intestinal flora; [20]): 31.9%
CO/N=C(\C(=O)N[C@@H]1C(=O)N2C(C(=O)O)=C(CSc3nc(=O)c(=O)[nH]n3C)CS[C@H]12)c1csc(N)n1 [Ceftriaxone]	162	510	1986	6067	162	507	1962	6232	does not interfere with the activity of HAase	31.5	28.8	28.9	33.2	29.1	33.2	37.9	39.3	47.1	16.8	14.7	Relative abundance of OUT (operational taxonomic units) (intestinal flora; [14]): 10.4%; Relative abundance of OUT (operational taxonomic units) (intestinal flora; [15]): 14.1%; Relative abundance of OUT (operational taxonomic units) (intestinal flora; [16]): 15.5%; Relative abundance of OUT (operational taxonomic units) (intestinal flora; [17]): 18.3%; Relative abundance of OUT (operational taxonomic units) (intestinal flora; [18]): 15.8%; Relative abundance of OUT (operational taxonomic units) (intestinal flora; [19]): 23.0%; Relative abundance of OUT (operational taxonomic units) (intestinal flora; [20]): 25.7%
